This is an account of results in ChEMBL document CHEMBL1201862, “PubChem BioAssay data set” (2004).

The target in assay [1] is T1, Mu-type opioid receptor (Homo sapiens, UniProt P35372). The assay is classed as functional, cell-based.
The target in assay [2] is 5-hydroxytryptamine receptor 2A (Mus musculus, UniProt P35363). Type of assay: functional, cell-based.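 Further: CHO-K1 cells with tagged receptor and beta-arrestin; agonist potency measured as compound-induced activation of the receptor.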
Chain of 5-hydroxytryptamine receptor 2A (P35363 whole entry): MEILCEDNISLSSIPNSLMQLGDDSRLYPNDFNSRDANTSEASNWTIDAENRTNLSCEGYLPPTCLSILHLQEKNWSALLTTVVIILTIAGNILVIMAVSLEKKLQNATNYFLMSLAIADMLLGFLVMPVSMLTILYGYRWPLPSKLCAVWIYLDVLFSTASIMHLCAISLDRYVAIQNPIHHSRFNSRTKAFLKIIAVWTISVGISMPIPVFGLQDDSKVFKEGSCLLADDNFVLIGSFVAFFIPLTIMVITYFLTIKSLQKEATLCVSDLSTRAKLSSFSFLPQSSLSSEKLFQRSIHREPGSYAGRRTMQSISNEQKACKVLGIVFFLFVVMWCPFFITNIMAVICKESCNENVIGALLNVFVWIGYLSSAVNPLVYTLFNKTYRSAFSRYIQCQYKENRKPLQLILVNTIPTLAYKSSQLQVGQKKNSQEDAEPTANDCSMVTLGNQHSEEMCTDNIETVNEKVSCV
A short description of assay [3]: non-specific 3'UTR reporter inhibition in Clone20-Shn3RL – cell-based, Renilla luciferase, cherry-picked, counter-screen for Shn3 inhibitor project, dose response (AID 624133). The assay is classed as functional. Background: A counterscreen serves to expose hits that act by an unwanted route or on another target.
The nature of assay [4]: reduction of Shn3 3'UTR-driven luciferase in osteoblasts – cell-based, Clone20 osteoblasts, firefly luciferase, cherry-picked, dose response (AID 624132).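 Further: firefly luciferase luminescence from reporter carrying the Shn3 3'UTR in osteoblasts.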 Type of assay: functional.
The target of assay [5] is Matrix metalloproteinase-14 (Homo sapiens, UniProt P50281). Briefly: Dose Response confirmation of uHTS hits for a small molecule inhibitors of MT1-MMP activation in a fluorescence assay set 1. The assay is classed as functional.
A short description of assay [6]: loss of viability in HepG2 cells – cell-based, CellTiter-Glo, cherry-picked, cytotoxicity control for Shn3 inhibitor project, dose response (AID 624134). Type of assay: functional.
The next assay addresses Protein Wnt-3a (Mus musculus, UniProt P27467). The experiment in a line: antagonism of Wnt3a pathway luciferase reporter – Wnt-LIGHT cells, luminescence, selectivity assay for Gli-SUFU antagonist project, dose response (AID 651570).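 Further: Wnt-LIGHT reporter cells stimulated with conditioned medium from Wnt3a-producing cells.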 The assay is classed as functional. The note with it: read-out: IC50_Mean.
The test system of a further assay is Vero. The experiment in a line: mammalian cell viability reduction – secondary assay, cytotoxicity control for West Nile virus antiviral project, dose response (AID 1650). The note with it: Chlorocebus sabaeus. Type of assay: functional.
Assay [7] is described as follows: cytotoxicity toward MDA-MB-231 breast cancer cells – cell-based, CellTiter-Glo luminescence, cherry-pick, cytotoxicity control for RAD54 inhibitor project, dose response (AID 651692). The assay is classed as functional. In general terms: ATP-based viability assays read luminescence as a measure of living cells.
Assay [8] deals with Delta-type opioid receptor (Homo sapiens, UniProt P41143). The experiment in a line: Counterscreen for agonists of heterodimerization of the mu 1 (OPRM1) and delta 1 (OPRD1) opioid receptors: Luminescence-based cell-based high throughput dose response assay to identify agonists of OPRD1 homodimerization. [Related pubchem assays (depositor defined):AID504326, AID504355, AID504692, AID504904, AID504905]. The assay is classed as functional.
Chain of Delta-type opioid receptor (P41143 whole entry): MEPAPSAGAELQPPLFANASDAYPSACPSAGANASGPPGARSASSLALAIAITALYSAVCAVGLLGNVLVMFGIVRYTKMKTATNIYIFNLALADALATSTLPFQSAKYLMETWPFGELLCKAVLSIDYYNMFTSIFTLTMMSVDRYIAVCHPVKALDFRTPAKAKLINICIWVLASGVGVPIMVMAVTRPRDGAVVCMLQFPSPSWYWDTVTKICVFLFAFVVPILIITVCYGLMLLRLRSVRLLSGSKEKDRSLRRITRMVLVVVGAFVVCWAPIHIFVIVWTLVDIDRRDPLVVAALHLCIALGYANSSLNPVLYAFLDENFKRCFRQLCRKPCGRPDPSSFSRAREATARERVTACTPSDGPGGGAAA

For assay [9], the target named is T2, DNA repair protein RAD52 homolog (Homo sapiens, UniProt P43351).
T2 sequence (P43351 whole entry): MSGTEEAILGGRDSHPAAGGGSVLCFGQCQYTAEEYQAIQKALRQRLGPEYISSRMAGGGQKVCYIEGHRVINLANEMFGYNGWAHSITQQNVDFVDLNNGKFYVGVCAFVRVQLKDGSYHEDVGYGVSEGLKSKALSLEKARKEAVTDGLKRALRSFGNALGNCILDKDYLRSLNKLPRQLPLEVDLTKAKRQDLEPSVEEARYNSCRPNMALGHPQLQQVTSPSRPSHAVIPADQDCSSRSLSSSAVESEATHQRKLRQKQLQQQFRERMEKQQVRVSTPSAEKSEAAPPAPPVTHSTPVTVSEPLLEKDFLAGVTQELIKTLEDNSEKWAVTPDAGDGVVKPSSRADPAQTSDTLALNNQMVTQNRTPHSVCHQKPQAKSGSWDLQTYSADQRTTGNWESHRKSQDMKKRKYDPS
The assay is classed as functional, biochemical.

In assay [10] the target is DNA repair and recombination protein RAD54-like (Homo sapiens, UniProt Q92698). Briefly: RAD54 Holliday junction migration blockers – biochemical, fluorescence, cherry-picked samples, dose series, confirmation (AID 651657). Type of assay: functional.
For the next assay, the system named is INS1. The experiment in a line: INS-1E survival protection against cytokine death – cell-based, luminescence, retest, dose response (AID 449756).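 Further: cell death triggered by IL-1 beta plus TNF-alpha plus IFN-gamma mixture; protective hits raise ATP signal compared with cytokine alone wells.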 The assay is classed as functional. The note with it: Rattus norvegicus.
Assay [11] addresses T1, Mu-type opioid receptor. Briefly: Counterscreen for agonists of heterodimerization of the mu 1 (OPRM1) and delta 1 (OPRD1) opioid receptors: Luminescence-based cell-based high throughput dose response assay to identify agonists of OPRM1 homodimerization. Type of assay: functional.
Assay [12] concerns the target 5-hydroxytryptamine receptor 5A (Homo sapiens, UniProt P47898). Briefly: Counterscreen for agonists of OPRM1-OPRD1 heterodimerization: luminescence-based cell-based high throughput dose response assay to identify agonists of 5-hydroxytryptamine (serotonin) 5A receptor (HTR5A). [Related pubchem assays (depositor defined):AID504326, AID504355, AID504692, AID504904, AID504905]. Type of assay: functional.

Assay [13] concerns the target Acyl-protein thioesterase 2 (Homo sapiens, UniProt O95372). Briefly: Late stage assay provider results from the probe development effort to identify selective inhibitors of LYPLA2: fluorescence-based biochemical dose-response assay.
The target of assay [14] is T3, Probable nicotinate-nucleotide adenylyltransferase (Staphylococcus aureus (strain N315), UniProt P65502). The assay is classed as functional, Staphylococcus aureus subsp. aureus N315.
T3 sequence (P65502 whole entry): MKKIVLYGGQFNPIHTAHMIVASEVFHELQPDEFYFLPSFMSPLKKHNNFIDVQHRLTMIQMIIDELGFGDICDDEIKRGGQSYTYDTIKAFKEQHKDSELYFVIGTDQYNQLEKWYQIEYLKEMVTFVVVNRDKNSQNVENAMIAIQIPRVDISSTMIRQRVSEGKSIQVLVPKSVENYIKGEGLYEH
In assay [15] the target is T3, Probable nicotinate-nucleotide adenylyltransferase. The assay is classed as functional, Staphylococcus aureus subsp. aureus N315. The note with it: read-out: IC50_Mean.
The target of assay [16] is T4, Small ubiquitin-related modifier 1 (Homo sapiens, UniProt P63165). Briefly: SUMO1 protein-protein binding blockers, potency – biochemical, FRET, dose response (AID 624383). Type of assay: functional. The note with it: read-out: IC50_Mean.
T4 sequence (P63165 whole entry): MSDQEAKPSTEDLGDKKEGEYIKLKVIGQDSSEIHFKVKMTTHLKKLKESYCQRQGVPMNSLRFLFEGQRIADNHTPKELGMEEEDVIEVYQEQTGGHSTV
The target of assay [17] is Small ubiquitin-related modifier 2 (Homo sapiens, UniProt P61956). Briefly: SUMO2 binding disruption by SUMO1 hits – biochemical, FRET, human SUMO2, uHTS hits, selectivity assay for SUMO1 interaction inhibitor project, dose response (AID 624384). The assay is classed as functional. The note with it: read-out: IC50_Mean.
Chain of Small ubiquitin-related modifier 2 (P61956 whole entry): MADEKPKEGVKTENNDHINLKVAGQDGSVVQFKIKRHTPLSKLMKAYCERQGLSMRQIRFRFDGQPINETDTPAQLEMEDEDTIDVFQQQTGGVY
The target of assay [18] is T4, Small ubiquitin-related modifier 1. The experiment in a line: SUMO1 protein interaction blockers, potency – biochemical, fluorescence polarization, uHTS hits, dose response (AID 624382). The assay is classed as functional. The note with it: read-out: IC50_Mean. (Polarisation of emitted light reports the rotation of a fluorescent probe.)
Assay [19] in a line: inhibition of bursicon-driven LGR2 cAMP signaling – cell-based, HEK293, CRE-luciferase reporter, cherry pick, dose response (AID 743342). The assay is classed as functional.
Assay [20] deals with Induced myeloid leukemia cell differentiation protein Mcl-1 (Homo sapiens, UniProt Q07820). Type of assay: functional.
Chain of Induced myeloid leukemia cell differentiation protein Mcl-1 (Q07820 whole entry): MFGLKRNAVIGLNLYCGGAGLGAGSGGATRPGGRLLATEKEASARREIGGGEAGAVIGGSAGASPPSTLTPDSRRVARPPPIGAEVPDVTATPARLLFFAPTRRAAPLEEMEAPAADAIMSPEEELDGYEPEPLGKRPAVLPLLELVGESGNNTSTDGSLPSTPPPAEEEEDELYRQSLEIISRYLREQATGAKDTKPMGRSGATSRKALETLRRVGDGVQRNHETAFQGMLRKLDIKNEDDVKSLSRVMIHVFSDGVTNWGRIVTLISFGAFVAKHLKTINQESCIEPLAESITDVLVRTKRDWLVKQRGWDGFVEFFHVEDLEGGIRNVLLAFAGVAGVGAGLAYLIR
For assay [21], the target named is Long-chain-fatty-acid--AMP ligase FadD28 (Mycobacterium tuberculosis, UniProt P9WQ59). Briefly: Fluorescence polarization aasay to screen for inhibitors that compete for the binding of FadD28 to a bisubstrate Measured in Biochemical System Using Plate Reader - 2147-01_Inhibitor_Dose_CherryPick_Activity. The assay is classed as functional, Mycobacterium tuberculosis H37Rv.

Assay [22] deals with Disintegrin and metalloproteinase domain-containing protein 17 (Homo sapiens, UniProt P78536). The experiment in a line: exosite inhibitors of ADAM17, dose response, biochemical (AID 743260).
Chain of Disintegrin and metalloproteinase domain-containing protein 17 (P78536 whole entry, the tested form may be a part): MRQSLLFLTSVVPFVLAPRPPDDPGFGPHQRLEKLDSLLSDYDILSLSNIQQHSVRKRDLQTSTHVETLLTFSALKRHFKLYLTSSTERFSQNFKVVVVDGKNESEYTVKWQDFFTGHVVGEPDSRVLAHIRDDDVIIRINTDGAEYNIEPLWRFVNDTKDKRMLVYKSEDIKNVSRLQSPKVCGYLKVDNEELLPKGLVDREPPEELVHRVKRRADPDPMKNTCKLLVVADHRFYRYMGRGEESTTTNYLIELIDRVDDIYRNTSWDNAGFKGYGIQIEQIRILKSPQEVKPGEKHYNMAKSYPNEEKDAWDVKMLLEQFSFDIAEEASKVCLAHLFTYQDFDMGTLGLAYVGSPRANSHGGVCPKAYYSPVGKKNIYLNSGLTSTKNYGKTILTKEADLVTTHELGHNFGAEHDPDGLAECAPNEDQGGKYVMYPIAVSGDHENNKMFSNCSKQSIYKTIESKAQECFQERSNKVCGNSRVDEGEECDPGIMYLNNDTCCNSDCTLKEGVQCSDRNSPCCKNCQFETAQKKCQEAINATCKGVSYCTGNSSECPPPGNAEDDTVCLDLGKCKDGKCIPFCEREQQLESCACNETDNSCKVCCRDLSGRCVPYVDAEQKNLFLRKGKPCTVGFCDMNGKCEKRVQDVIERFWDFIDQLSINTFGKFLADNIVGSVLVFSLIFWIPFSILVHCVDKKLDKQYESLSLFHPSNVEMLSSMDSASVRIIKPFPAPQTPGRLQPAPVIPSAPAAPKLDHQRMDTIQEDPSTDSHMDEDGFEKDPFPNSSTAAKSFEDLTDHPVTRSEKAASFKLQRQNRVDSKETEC
A further assay deals with Genome polyprotein (dengue virus type 2, UniProt P29990). The experiment in a line: flavivirus cap methylation enzyme inhibition – biochemical, confirmation dose response, primary screen (AID 588689). Type of assay: functional.
Chain of Genome polyprotein (P29990 2492-3391 limits assumed): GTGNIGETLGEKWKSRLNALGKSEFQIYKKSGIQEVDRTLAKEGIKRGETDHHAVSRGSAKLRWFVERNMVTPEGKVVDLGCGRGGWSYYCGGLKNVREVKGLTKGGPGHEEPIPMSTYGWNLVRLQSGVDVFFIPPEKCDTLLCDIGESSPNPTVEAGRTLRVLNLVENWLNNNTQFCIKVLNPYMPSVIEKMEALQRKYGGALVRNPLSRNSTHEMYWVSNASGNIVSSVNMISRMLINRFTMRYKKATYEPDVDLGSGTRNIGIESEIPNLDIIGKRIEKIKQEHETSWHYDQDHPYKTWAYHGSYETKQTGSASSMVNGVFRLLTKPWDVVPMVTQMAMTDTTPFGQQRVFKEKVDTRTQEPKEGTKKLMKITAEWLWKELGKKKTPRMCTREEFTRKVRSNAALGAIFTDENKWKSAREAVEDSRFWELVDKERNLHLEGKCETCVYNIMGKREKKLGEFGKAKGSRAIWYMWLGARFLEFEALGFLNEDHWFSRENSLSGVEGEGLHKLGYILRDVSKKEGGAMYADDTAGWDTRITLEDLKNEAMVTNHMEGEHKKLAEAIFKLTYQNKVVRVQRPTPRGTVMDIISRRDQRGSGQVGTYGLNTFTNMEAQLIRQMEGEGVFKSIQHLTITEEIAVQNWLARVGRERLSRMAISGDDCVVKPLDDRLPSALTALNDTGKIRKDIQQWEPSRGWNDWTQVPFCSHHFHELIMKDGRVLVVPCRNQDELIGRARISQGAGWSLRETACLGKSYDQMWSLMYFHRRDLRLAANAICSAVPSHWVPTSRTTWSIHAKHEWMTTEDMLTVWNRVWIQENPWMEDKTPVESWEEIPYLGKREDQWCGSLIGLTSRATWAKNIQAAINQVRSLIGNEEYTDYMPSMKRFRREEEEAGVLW
For assay [23], the system named is Streptococcus sp. 'group A'. The experiment in a line: Streptococcus pyogenes SK(-)GAS viability under kanamycin – luminescence, BacTiterGlo, confirmation, counter-screen for streptokinase expression inhibitor project, dose response (AID 1900). Type of assay: functional, organism-based.
The target of another assay is T5, Streptokinase A (Streptococcus pyogenes serotype M1, UniProt P10520).
T5 sequence (P10520 whole entry): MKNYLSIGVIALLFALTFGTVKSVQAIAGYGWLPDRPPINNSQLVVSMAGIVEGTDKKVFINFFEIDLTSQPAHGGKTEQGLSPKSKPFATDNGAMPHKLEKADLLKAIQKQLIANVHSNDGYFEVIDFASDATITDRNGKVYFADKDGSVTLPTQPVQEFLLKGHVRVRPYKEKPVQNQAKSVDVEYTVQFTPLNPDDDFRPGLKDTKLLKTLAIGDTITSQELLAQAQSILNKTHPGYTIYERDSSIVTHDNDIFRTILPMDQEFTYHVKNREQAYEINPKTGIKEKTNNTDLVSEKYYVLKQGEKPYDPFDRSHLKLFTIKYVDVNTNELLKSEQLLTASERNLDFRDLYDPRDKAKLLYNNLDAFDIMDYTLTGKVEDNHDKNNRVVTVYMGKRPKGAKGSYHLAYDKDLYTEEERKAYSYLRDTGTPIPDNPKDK
The experiment in a line: viability-normalized secreted streptokinase activity reduction – plasminogen activation absorbance, OD405, dose response (AID 1914).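 Further: secreted streptokinase activity via plasminogen activation per viability signal from cell pellet.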 Type of assay: functional, Streptococcus pyogenes M1 GAS.

The subject of the next assay is Streptococcus. Briefly: GAS UMAA2166 growth inhibition – luminescence, BacTiterGlo, counter-screen for streptokinase expression inhibitor project, dose response (AID 1915).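 Further: potency for reduction of bacterial viability or growth.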 Type of assay: functional, organism-based.
A short description of assay [24]: inhibition of ADAM10 peptide cleavage – biochemical, FRET peptide substrate, recombinant human ADAM10, selectivity assay for ADAM17 exosite inhibitor project, dose response (AID 743259).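 Further: ADAM10 enzyme cleaving a FRET peptide substrate.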
The next assay can be described thus: cells. Type of assay: functional, cell-based.
Assay [25] addresses T6, Nuclear receptor subfamily 0 group B member 1 (Homo sapiens, UniProt P51843).
T6 sequence (P51843 whole entry): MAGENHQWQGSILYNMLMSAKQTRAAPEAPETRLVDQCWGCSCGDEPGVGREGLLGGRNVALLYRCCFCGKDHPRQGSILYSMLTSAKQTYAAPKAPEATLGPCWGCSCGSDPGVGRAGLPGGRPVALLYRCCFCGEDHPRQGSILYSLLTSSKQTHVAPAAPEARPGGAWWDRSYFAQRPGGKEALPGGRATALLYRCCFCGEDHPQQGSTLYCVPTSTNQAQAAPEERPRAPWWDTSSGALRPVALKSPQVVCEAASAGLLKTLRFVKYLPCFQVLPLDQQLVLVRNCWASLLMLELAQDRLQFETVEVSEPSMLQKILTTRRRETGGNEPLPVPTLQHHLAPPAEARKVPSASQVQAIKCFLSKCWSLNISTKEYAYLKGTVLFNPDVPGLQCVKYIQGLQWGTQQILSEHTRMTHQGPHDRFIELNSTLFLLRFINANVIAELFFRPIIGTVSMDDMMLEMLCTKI
The assay is classed as functional, cell-based.

Activity calls are given as the source filed them.

The term EC50 denotes the concentration giving half of the maximal effect. As usually defined, the AC50 is the concentration giving half of the maximal activity seen. One may read the CC50 as the concentration at which the toxic effect on the cells reaches its halfway point.

T1 sequence (P35372 whole entry): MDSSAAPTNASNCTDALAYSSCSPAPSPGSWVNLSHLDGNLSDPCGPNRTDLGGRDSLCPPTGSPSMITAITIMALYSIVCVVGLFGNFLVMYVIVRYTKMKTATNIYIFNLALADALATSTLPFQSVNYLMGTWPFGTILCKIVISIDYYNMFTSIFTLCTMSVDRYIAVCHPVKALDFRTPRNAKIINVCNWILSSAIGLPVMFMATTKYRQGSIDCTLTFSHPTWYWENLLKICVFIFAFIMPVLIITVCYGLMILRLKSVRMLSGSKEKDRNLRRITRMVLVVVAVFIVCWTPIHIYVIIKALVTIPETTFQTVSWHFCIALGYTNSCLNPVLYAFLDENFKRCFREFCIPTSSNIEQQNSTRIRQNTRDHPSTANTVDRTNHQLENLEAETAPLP
Chain of Protein Wnt-3a (P27467 whole entry): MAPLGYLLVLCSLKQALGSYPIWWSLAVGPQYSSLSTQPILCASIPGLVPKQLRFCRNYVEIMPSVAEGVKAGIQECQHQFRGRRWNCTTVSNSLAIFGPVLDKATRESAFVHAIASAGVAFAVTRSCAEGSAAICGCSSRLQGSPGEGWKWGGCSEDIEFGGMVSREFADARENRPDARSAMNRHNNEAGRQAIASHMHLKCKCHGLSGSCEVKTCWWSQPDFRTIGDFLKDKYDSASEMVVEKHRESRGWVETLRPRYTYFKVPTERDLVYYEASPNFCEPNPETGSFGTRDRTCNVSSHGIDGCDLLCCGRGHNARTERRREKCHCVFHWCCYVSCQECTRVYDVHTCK
Chain of 5-hydroxytryptamine receptor 5A (P47898 whole entry): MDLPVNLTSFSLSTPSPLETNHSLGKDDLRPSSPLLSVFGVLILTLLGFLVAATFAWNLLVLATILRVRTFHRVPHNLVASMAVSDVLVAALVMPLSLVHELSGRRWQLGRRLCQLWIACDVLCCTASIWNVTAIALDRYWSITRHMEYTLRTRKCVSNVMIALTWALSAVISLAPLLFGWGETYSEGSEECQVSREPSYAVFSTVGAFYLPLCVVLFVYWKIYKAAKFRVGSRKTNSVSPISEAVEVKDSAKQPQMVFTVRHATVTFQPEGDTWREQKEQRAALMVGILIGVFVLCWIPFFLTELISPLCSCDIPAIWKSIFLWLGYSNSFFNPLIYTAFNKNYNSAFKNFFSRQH
Chain of Acyl-protein thioesterase 2 (O95372 whole entry): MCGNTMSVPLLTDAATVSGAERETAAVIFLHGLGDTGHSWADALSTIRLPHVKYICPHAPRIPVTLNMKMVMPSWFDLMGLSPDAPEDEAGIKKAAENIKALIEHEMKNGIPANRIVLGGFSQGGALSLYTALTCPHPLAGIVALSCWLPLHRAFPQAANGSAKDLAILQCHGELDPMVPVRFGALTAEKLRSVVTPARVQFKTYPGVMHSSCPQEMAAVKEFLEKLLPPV

For `Cc1cccc(C)c1-n1nnnc1C(C1CC1)N1CCN(C/C=C/c2ccccc2)CC1` (configuration not stated), the EC50 is 92.6 µM (inactive) on Mu-type opioid receptor [1] and 0.94 µM (active) in assay [2].

`CNc1ccccc1C(C)(C)c1cc(-c2cccc(Br)c2)no1`: the values for the concentration at half-maximal activity (AC50) in assay [3], in [4] and in assay [6] were 9.45 µM (active), 2 µM (active) and 44.5 µM (active), respectively. Besides, the IC50 in [5] is > 80 µM (inactive); at Protein Wnt-3a it was 1.8 µM (active).

As to `CCOc1ccc(Nc2c3ccccc3nc3ccccc23)cc1`, the CC50 in the assay with Vero was 6.47 µM (active). The concentration at half-maximal activity (AC50) was 46.9 µM (active) in assay [7], 1.57 µM (active) in assay [9], 7.28 µM (active) in assay [10] and 5.05 µM (active) in the assay on INS1. Besides, the EC50 in [8] was > 92.5 µM (inactive); at Mu-type opioid receptor [11] it was 43.8 µM (inactive); in assay [12], > 92.5 µM (inactive).

Take `O=C(CN1CCN(C(=O)c2ccco2)CC1)Nc1cc(C(F)(F)F)ccc1Cl`: the IC50 in assay [13] was > 10 µM (inactive).

Turning to `Cc1ccc(S(=O)(=O)Nc2ccc(Nc3nccn4c(-c5ccc6ccccc6c5)cnc34)cc2)cc1`, the figures for the IC50 in assay [14] and in assay [15] were 9.78 µM (active) and 16.3 µM (active), respectively.

With `N#C/C(=C(\O)Nc1cccc(Cl)c1)c1nc2ccccc2[nH]1`, the IC50 in assay [16] is 52.6 µM (inactive); in [17], > 66 µM (inactive); in assay [18] it was 66 µM (inactive).

As for `C[C@H](CO)N1C[C@H](C)[C@H](CN(C)C(=O)Nc2ccc(F)cc2)OCCCC[C@H](C)Oc2ccc(NC(=O)NC3CCCCC3)cc2C1=O`, the half-maximal activity concentration (AC50) in assay [19] was 8.05 µM (active).

Take `Cc1[nH]n(-c2ncc(-c3ccccc3)s2)c(=O)c1C(c1ccc(Br)cc1)C(C#N)C#N` (configuration not stated): the IC50 was 4.67 µM (active) in [20], > 69.5 µM (inactive) in assay [22], 22.3 µM (active) at Genome polyprotein and 10.6 µM (inactive) in assay [24]. Besides, the AC50 in [21] was 35.5 µM (active). Besides, the EC50 was 3.39 µM (active) in [23], > 150 µM (not active) at Streptokinase A and 5.75 µM (active) in the assay with Streptococcus.

As for `CN1OC[C@@H]2CN[C@H](c3ccc(-c4cccc(F)c4)cc3)C[C@@H]21`, the IC50 (in “cells”; in assay [25]) was > 67.5 µM (inactive) throughout.
